From patent US12540142B2, “Method for evaluating quality of (3S)-3-(4-(3-(1,4-dioxaspiro[4,5]dec-7-en-8-yl)benzyloxy)phenyl)hex-4-inoic acid” (Hyundai Pharm Co., Ltd., priority 2020, dated 2026)

What was measured:
[1] = Related substance analysis by HPLC after refrigerated storage for about 2 years; format: physicochemical; conditions: substance stored under refrigerated conditions (5° C.±3° C.) for about 2 years; for Area %: HPLC 220 nm
Protocol: About 35 mg of a (3S)-3-(4-(3-(1,4-dioxaspiro[4,5]dec-7-en yl)benzyloxy)phenyl)hex-4-inoic acid-containing substance stored under refrigerated conditions (5° C.±3° C.) for about 2 years was accurately weighed and put into a 50-ml volume flask, a diluent was added to the flask at about ⅔ of the volume, and the resulting mixture was mixed well. Thereafter, a related substance was analyzed using HPLC (Agilent Technologies 1200 Series).
<HPLC conditions> Operation Parameters
Column: Kinetex EVO C18, 5 um, 4.6×250 mm
Column temperature: 25° C.
Sample concentration: 0.7 mg/ml
Mobile Phase A: 0.01 M K2HPO4 (pH 7)

[2] = Stress sample with oxidant (3% hydrogen peroxide), related substance analysis by HPLC; format: physicochemical; conditions: 3% hydrogen peroxide solution, room temperature, 24 hours; HPLC as in Example 1
Protocol: A stress sample stressed using an oxidant was prepared to confirm the production of the related substance. About 35 mg of a (3S)-3-(4-(3-(1,4-dioxaspiro[4,5]dec-7-en-8-yl)benzyloxy)phenyl)hex-4-inoic acid-containing substance stored under refrigerated conditions (5° C.±3° C.) for about 2 years was accurately weighed and put into a 50-ml volume flask. A diluent was added to the flask at about ⅔ of the volume, and the resulting mixture was mixed well. After 2 ml of a 3% hydrogen peroxide solution was added thereto, the resulting mixture was mixed well and marked with a diluent. The stress sample was left to stand at room temperature, and 24 hours later, the related substance was analyzed using HPLC (Agilent Technologies 1200 Series). The related substance was analyzed under the same conditions as in Example 1. As a result, it was confirmed that the related substance was produced from the stress sample (RRT 0.93, Area 3.83%). A comparison of the HPLC data of both samples using the sample of Example 1 as a control is shown in FIG. 4 (blue: control, green: stress sample). It was confirmed that the production of the related substance of Chemical Formula 2 in the stress sample was increased compared to the control.

[3] = research project title; no test described; cited from earlier work
[4] = research project title; no test described; cited from earlier work; remark: listed apart in the source

| SMILES | Area % [1] [%] | Area % of related substance (RRT: 0.93) ([1]; HPLC) [%] | Area of related substance produced (RRT 0.93) [2] [%] | EC50 [3] [nM] | hypoglycemic effect (HbA1c) [4] [%] |
| --- | --- | --- | --- | --- | --- |
| CC#C[C@@H](CC(=O)O)c1ccc(OCc2cccc(C3=CCC4(CC3)OCCO4)c2)cc1 [Chemical Formula 1, (3S)-3-(4-(3-(1,4-dioxaspiro[4,5]dec-7-en-8-yl)benzyloxy)phenyl)hex-4-inoic acid] | 98.9289 |  |  |  |  |
| CC#C[C@@H](CC(=O)O)c1ccc(OCc2cccc(C34CCC5(CC3O4)OCCO5)c2)cc1 (stereo partly drawn) [Chemical Formula 2, (3S)-3-(4-((3-(7-oxaspiro[bicyclo[4.1.0]heptane-3,2′-[1,3]dioxolan]-6-yl)benzyl)oxy)phenyl)hex-4-inoic acid] | 0.2566 | 0.26 | 3.83 |  |  |
| CC#C[C@@H](CC(=O)O)c1ccc(OCc2cccc(C3=CCC4(CC3)OCCO4)c2)cc1 [HD-6277] |  |  |  | < 1 | > 1 |
